The results in this text go back to patent US10556902B2 (Asceneuron SA, priority 2016, dated 2020).

What is called IC50 is the concentration that inhibits the measured activity by half.

The target of one test is His-Tagged hOGA (human O-GlcNAcase) (Homo sapiens (Human), UniProt O60502). Kind of test: Human O-GlcNAcase enzyme inhibition assay.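 Note: reactions contained 20 nM His-tagged hOGA enzyme with 10 µM FL-GlcNAc substrate.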 Type of test: biochemical. The note with it: OGA IC50 (M), FL-GlcNAc substrate, pH 6.5, activity classes defined in μM.
Chain of His-Tagged hOGA (human O-GlcNAcase) (O60502 whole entry): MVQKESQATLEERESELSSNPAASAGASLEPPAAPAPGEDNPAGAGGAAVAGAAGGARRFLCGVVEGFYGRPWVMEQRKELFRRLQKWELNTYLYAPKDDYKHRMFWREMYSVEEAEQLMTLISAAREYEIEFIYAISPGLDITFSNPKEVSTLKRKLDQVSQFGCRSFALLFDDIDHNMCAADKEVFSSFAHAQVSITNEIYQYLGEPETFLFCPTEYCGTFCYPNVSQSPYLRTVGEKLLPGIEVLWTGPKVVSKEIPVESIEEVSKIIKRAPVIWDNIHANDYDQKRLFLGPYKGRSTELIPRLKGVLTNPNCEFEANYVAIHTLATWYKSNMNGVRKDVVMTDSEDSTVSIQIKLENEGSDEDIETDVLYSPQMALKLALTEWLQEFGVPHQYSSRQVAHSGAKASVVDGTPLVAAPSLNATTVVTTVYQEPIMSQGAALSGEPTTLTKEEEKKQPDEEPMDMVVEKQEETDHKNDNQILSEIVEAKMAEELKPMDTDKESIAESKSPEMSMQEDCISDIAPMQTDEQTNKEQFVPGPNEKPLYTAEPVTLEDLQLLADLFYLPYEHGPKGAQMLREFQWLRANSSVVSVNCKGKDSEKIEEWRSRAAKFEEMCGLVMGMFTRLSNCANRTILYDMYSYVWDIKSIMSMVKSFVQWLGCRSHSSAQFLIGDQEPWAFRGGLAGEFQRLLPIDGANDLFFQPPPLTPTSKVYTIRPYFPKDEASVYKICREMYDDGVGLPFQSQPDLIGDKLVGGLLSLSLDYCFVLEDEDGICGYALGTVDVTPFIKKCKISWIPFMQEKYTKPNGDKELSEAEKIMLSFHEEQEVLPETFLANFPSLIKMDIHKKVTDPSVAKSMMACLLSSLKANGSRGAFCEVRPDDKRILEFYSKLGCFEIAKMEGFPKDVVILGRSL
Description: Then, 20 nM of His-Tagged hOGA and 10 μM of FL-GlcNAc (Fluorescein mono-beta-D-(2-deoxy-2-N-acetyl) glucopyranoside; Marker Gene Technologies Inc, M1485) were added to the 384-well plate for a final volume of 20 μl.
`CC(c1ccc2nccnc2c1)N1CCC(n2cc(C(F)(F)F)cn2)CC1` (stereo not shown) [Example 31] came in with an IC50 of 1e-06 to 1e-05 M.

Staying with this test, now noted: OGA enzyme inhibition assay; FL-GlcNAc substrate, pH 6.5; activity classes defined in μM; read-out: OGA IC50.
Take `CC(c1ccc2nccnc2c1)N1CCN(c2ccc(=O)[nH]c2)CC1` (racemic) [Example 54, 5-(4-(1-(quinoxalin-6-yl)ethyl)piperazin-1-yl)pyridin-2(1H)-one]: the half-maximal inhibitory concentration (IC50) lay within 2e-07 to 1e-06 M.

Regarding `CC(c1ccc2nccnc2c1)N1CCN(c2ccc(C(C)(C)O)cn2)CC1` (racemic) [Example 51, 2-(6-(4-(1-(quinoxalin-6-yl)ethyl)piperazin-1-yl)pyridin-3-yl) propan-2-ol], the IC50 was in the range of 5e-08 to 2e-07 M. Same read-out and setting: next, `CC(c1ccc2c(c1)OCC2)N1CCN(c2ncc(C3(O)COC3)cn2)CC1` (racemic) [Example 82, 3-(2-(4-(1-(2,3-dihydrobenzofuran-6-yl)ethyl)piperazin-1-yl)pyrimidin-5-yl)oxetan-3-ol]: under 5e-08 M. Consider `CC(c1ccc2nccnc2c1)N1CCN(c2nnc(CN)s2)CC1` (racemic) [Example 126, (5-(4-(1-(quinoxalin-6-yl)ethyl)piperazin-1-yl)-1,3,4-thiadiazol-2-yl)methanamine], for which the half-maximal inhibitory concentration (IC50) lay within 2e-07 to 1e-06 M. In the case of `CC(c1ccc2nccnc2c1)N1CCN(c2cccc(C(=O)N(C)C)n2)CC1` (racemic) [Example 69, N, N-dimethyl-6-(4-(1-(quinoxalin-6-yl)ethyl)piperazin-1-yl) picolinamide], the IC50 lay in the range of 2e-07 to 1e-06 M. Regarding `CC(c1ccc2nccnc2c1)N1CCN(c2ccc(S(C)(=O)=O)cn2)CC1` (racemic) [Example 72, 6-(1-(4-(5-(methylsulfonyl)pyridin-2-yl)piperazin-1-yl)ethyl)quinoxaline], the IC50 lay within 5e-08 to 2e-07 M.

Turning to `CC(c1ccc2nccnc2c1)N1CCN(c2nnc(CO)s2)CC1` (racemic) [Example 37, (5-(4-(1-(quinoxalin-6-yl)ethyl)piperazin-1-yl)-1,3,4-thiadiazol-2-yl)methanol], the IC50 was 2e-07 to 1e-06 M. As to `CC(c1ccc2nccnc2c1)N1CCN(c2ncc(CO)cn2)CC1` (racemic) [Example 86, (2-(4-(1-(Quinoxalin-6-yl)ethyl)piperazin-1-yl)pyrimidin-5-yl) methanol], the IC50 fell in the range of 5e-08 to 2e-07 M. `CC(=O)N1CCc2nc(N3CCN(C(C)c4ccc5nccnc5c4)CC3)ncc2C1` (racemic) [Example 6, 1-(2-(4-(1-(quinoxalin-6-yl)ethyl)piperazin-1-yl)-7,8-dihydropyrido[4,3-d]pyrimidin-6(5H)-yl)ethan-1-one]: the 50% inhibitory concentration (IC50) lay within 5e-08 to 2e-07 M. Take `CC(c1ccc2c(c1)OCC2)N1CCN(c2ncc(CO)cn2)CC1` (racemic) [Example 75, (2-(4-(1-(2,3-Dihydrobenzofuran-6-yl)ethyl)piperazin-1-yl)pyrimidin-5-yl) methanol]: the concentration for half-maximal inhibition (IC50) is under 5e-08 M. Same read-out and setting: next, `CC(c1ccc2c(c1)OCC2)N1CCN(c2ccc(S(C)(=O)=O)cn2)CC1` (racemic) [Example 71]: under 5e-08 M; `CC(c1ccc2c(c1)OCC2)N1CCN(c2ccc(S(C)(=O)=O)nn2)CC1` (racemic) [Example 45, 3-(4-(1-(2,3-dihydrobenzofuran-6-yl)ethyl)piperazin-1-yl)-6-(methylsulfonyl)pyridazine]: under 5e-08 M; `CC(=O)NCc1nnc(N2CCN(C(C)c3ccc4c(c3)OCC4)CC2)s1` (racemic) [Example 110]: under 5e-08 M. Same read-out and setting: for `CNC(=O)c1cnc(N2CCN(C(C)c3ccc4scnc4c3)CC2)nc1` (racemic) [Example 96, 2-(4-(1-(benzo[d]thiazol-5-yl)ethyl)piperazin-1-yl)-N-methylpyrimidine-5-carboxamide] the value was under 5e-08 M; for `CC(=O)Nc1nnc(N2CCN([C@@H](C)c3cnc4cccnc4c3)CC2)s1` [Example 222], 5e-08 to 2e-07 M; for `CC(c1ccn2ccnc2c1)N1CCN(c2ncc(C(F)(F)F)cn2)CC1` (racemic) [Example 91, 7-(1-(4-(5-(trifluoromethyl)pyrimidin-2-yl)piperazin-1-yl)ethyl)imidazo[1,2-a]pyridine], 1e-06 to 1e-05 M. With `CC(c1ccc2c(c1)OCC2)N1CCC(n2cc(CO)cn2)CC1` (racemic) [Example 28, (1-(1-(1-(2,3-dihydrobenzofuran-6-yl)ethyl)piperidin-4-yl)-1H-pyrazol-4-yl) methanol], the IC50 lay in the range of 2e-07 to 1e-06 M. As to `CC(=O)Nc1nnc(N2CCN(C(C)c3ccc4c(c3)OCC4)CC2)s1` (single isomer, unassigned) [Example 109], the IC50 was under 5e-08 M. The same measure, in the same setting: next, `CC(O)c1ccc(N2CCN(C(C)c3ccc4c(c3)OCC4)CC2)nc1` (racemic) [Example 47, 1-(6-(4-(1-(2,3-dihydrobenzofuran-6-yl)ethyl)piperazin-1-yl)pyridin-3-yl)ethan-1-ol]: under 5e-08 M; `CC(O)c1ccc(N2CCN(C(C)c3ccc4nccnc4c3)CC2)nn1` (racemic) [Example 36, 1-(6-(4-(1-(quinoxalin-6-yl)ethyl)piperazin-1-yl)pyridazin-3-yl)ethan-1-ol]: 2e-07 to 1e-06 M; `COC(=O)c1cnc(N2CCN(C(C)c3ccc4nccnc4c3)CC2)nc1` (racemic) [Example 105, Methyl 2-(4-(1-(quinoxalin-6-yl)ethyl)piperazin-1-yl)pyrimidine-5-carboxylate]: 5e-08 to 2e-07 M. For the compound `COC(=O)c1ccc(N2CCN(C(C)c3ccc4nccnc4c3)CC2)nc1` (racemic) [Example 66, Methyl-6-(4-(1-(quinoxalin-6-yl)ethyl)piperazin-1-yl) nicotinate], the half-maximal inhibitory concentration (IC50) lay within 5e-08 to 2e-07 M. For the compound `CC(=O)Nc1nnc(N2CCN(C(C)c3cnc4cccnc4c3)CC2)s1` (racemic) [Example 111, N-(5-(4-(1-(1,5-naphthyridin-3-yl)ethyl)piperazin-1-yl)-1,3,4-thiadiazol-2-yl)acetamide], the half-maximal inhibitory concentration (IC50) lay within 5e-08 to 2e-07 M. Turning to `CC(c1ccc2scnc2c1)N1CCN(c2ncc(C(=O)N(C)C)cn2)CC1` (racemic) [Example 97, 2-(4-(1-(benzo[d]thiazol-5-yl)ethyl)piperazin-1-yl)-N,N-dimethylpyrimidine-5-carboxamide], the half-maximal inhibitory concentration (IC50) is under 5e-08 M.

For the compound `CC(c1ccc2c(c1)OCC2)N1CCN(c2ncc(C(O)C(F)(F)F)cn2)CC1` (racemic) [Example 77, 1-(2-(4-(1-(2,3-dihydrobenzofuran-6-yl)ethyl)piperazin-1-yl)pyrimidin-5-yl)-2,2,2-trifluoroethan-1-ol], the IC50 was under 5e-08 M.

For the compound `CC(c1ccc2c(c1)OCC2)N1CCN(c2ncc(C3(O)CCCCC3)cn2)CC1` (racemic) [Example 80, 1-(2-(4-(1-(2,3-dihydrobenzofuran-6-yl)ethyl)piperazin-1-yl)pyrimidin-5-yl)cyclohexan-1-ol], the IC50 was under 5e-08 M. Still for that read-out and setting: next, `CCOC(=O)c1nnc(N2CCN(C(C)c3ccc4nccnc4c3)CC2)s1` (racemic) [Example 120, Ethyl 5-(4-(1-(quinoxalin-6-yl)ethyl)piperazin-1-yl)-1,3,4-thiadiazole-2-carboxylate]: 1e-06 to 1e-05 M; `CC(c1ccc2nccnc2c1)N1CCN(c2ccc(C3(O)CCCCC3)cn2)CC1` (racemic) [Example 60, 1-(6-(4-(1-(quinoxalin-6-yl)ethyl)piperazin-1-yl)pyridin-3-yl)cyclohexan-1-ol]: 2e-07 to 1e-06 M. Take `CNC(=O)c1cccc(N2CCN(C(C)c3ccc4nccnc4c3)CC2)n1` (racemic) [Example 68, N-methyl-6-(4-(1-(quinoxalin-6-yl)ethyl)piperazin-1-yl) picolinamide]: the half-maximal inhibitory concentration (IC50) lay in the range of 5e-08 to 2e-07 M.

Turning to `CC(c1ccc2nccnc2c1)N1CCN(c2nc3c(s2)CN(C)CC3)CC1` (racemic) [Example 20, 5-Methyl-2-(4-(1-(quinoxalin-6-yl)ethyl)piperazin-1-yl)-4,5,6,7-tetrahydrothiazolo[5,4-c]pyridine], the half-maximal inhibitory concentration (IC50) lay within 5e-08 to 2e-07 M. As for `Cc1cnc(N2CCN(C(C)c3ccc4c(c3)OCC4)CC2)nc1` (racemic) [Example 90, 2-(4-(1-(2,3-dihydrobenzofuran-6-yl)ethyl)piperazin-1-yl)-5-methylpyrimidine], the IC50 was under 5e-08 M. Still for that read-out and setting: for `CC(c1ccc2cccnc2n1)N1CCN(c2ncc(C(O)C(F)(F)F)cn2)CC1` (racemic) [Example 83, 1-(2-(4-(1-(1,8-naphthyridin-2-yl)ethyl)piperazin-1-yl)pyrimidin-5-yl)-2,2,2-trifluoroethan-1-ol] the value was under 5e-08 M. On the same count and under the same terms, next, `CC(c1ccc2nccnc2c1)N1CCN(c2ncc(C3=CCCC3)cn2)CC1` (racemic) [Example 94, 6-(1-(4-(5-(cyclopent-1-en-1-yl)pyrimidin-2-yl)piperazin-1-yl)ethyl)quinoxaline]: 2e-07 to 1e-06 M; `CC(c1ccc2c(c1)OCC2)N1CCN(c2ccc(C(=O)N(C)C)cn2)CC1` (racemic) [Example 63, 6-(4-(1-(2,3-dihydrobenzofuran-6-yl)ethyl)piperazin-1-yl)-N,N-dimethylnicotinamide]: under 5e-08 M. As to `CCOC(=O)c1nnc(N2CCN(C(C)c3ccc4c(c3)OCC4)CC2)s1` (racemic) [Example 117, Ethyl 5-(4-(1-(2,3-dihydrobenzofuran-6-yl)ethyl)piperazin-1-yl)-1,3,4-thiadiazole-2-carboxylate], the IC50 lay in the range of 5e-08 to 2e-07 M. Still for that read-out and setting: next, `CNC(=O)c1cnc(N2CCN(C(C)c3ccc4c(c3)OCC4)CC2)nc1` (racemic) [Example 99, 2-(4-(1-(2,3-dihydrobenzofuran-6-yl)ethyl)piperazin-1-yl)-N-methylpyrimidine-5-carboxamide]: under 5e-08 M; `CC(c1ccc2c(c1)OCC2)N1CCN(c2nc3c(s2)CNCC3)CC1` (racemic) [Example 15, 2-(4-(1-(2,3-dihydrobenzofuran-6-yl)ethyl)piperazin-1-yl)-4,5,6,7-tetrahydrothiazolo[5,4-c]pyridine]: under 5e-08 M. Still for that read-out and setting: next, `CC(O)c1cnc(N2CCN(C(C)c3ccc4nccnc4c3)CC2)nc1` (racemic) [Example 84, 1-(2-(4-(1-(quinoxalin-6-yl)ethyl)piperazin-1-yl)pyrimidin-5-yl) ethan-1-ol]: 5e-08 to 2e-07 M; `CNC(=O)c1ccc(N2CCN(C(C)c3ccc4c(c3)OCC4)CC2)nc1` (racemic) [Example 64, 6-(4-(1-(2,3-dihydrobenzofuran-6-yl)ethyl)piperazin-1-yl)-N-methylnicotinamide]: under 5e-08 M.
